Each block holds one molecule with its values, some of them ahead of it.
How the values were obtained:
MRP2 [1] = biological target: T1, MRP2 (Homo sapiens, UniProt Q92887); test: Caco-2 efflux of MRP2 probe CDCF (fluorescence) with/without inhibitor or in MRP2 KO cells; format: cell-based; settings: for specificity of MRP2 inhibitors (functional assessment, Supplementary Table S1): Caco-2
T1 construct: express major uptake and efflux transporters on the apical and basal membranes, including the key efflux transporters Pgp, BCRP and MRP2; host or cells: Caco-2 (HTB-37); C2BBe1 clone WT/KO cells from SOLVO Biotechnology for the knockout comparisons
T1 sequence (Q92887 whole entry): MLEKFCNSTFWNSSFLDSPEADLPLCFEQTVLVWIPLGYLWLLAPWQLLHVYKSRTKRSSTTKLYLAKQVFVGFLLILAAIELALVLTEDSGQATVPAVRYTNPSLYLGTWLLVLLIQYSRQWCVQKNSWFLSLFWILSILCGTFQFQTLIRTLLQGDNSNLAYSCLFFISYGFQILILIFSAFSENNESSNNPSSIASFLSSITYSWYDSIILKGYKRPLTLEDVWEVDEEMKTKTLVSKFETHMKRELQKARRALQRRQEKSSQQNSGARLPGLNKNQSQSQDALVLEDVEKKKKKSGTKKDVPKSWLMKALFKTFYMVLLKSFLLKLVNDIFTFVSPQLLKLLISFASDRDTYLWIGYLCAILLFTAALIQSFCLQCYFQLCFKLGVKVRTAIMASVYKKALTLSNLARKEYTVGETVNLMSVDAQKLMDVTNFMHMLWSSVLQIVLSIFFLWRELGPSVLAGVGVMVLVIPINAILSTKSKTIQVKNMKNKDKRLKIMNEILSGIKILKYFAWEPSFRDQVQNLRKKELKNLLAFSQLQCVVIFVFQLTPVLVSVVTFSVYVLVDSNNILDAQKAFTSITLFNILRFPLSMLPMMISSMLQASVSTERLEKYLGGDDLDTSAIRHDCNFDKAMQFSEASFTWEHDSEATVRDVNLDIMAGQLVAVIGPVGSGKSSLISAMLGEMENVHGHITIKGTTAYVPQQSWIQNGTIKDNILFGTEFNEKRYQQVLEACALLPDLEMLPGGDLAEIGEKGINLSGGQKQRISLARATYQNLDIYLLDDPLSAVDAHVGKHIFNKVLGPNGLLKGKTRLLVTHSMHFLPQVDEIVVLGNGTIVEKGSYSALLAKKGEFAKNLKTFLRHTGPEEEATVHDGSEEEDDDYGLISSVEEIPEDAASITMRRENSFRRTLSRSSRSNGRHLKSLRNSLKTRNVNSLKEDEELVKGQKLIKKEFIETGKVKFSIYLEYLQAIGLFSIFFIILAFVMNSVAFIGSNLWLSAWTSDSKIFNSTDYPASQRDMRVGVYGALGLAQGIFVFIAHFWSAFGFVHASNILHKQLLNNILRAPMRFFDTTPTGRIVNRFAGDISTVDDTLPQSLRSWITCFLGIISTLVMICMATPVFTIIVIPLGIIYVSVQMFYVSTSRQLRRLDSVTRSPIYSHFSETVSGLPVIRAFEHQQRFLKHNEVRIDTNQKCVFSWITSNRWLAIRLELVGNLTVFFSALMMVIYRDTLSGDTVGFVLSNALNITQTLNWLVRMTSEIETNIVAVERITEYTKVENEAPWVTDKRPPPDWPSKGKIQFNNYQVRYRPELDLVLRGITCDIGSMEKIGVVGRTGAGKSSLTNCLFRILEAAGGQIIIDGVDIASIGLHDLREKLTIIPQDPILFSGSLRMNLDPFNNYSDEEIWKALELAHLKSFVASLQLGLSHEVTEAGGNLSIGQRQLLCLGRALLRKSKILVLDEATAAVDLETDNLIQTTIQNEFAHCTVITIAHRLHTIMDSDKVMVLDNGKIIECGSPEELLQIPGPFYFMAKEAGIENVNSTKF
Procedure: (§1) The compounds were first added into either the apical or basolateral chamber in the absence or presence of the relevant inhibitor. After 2 h incubation with the compounds, the samples from the apical and basolateral chamber were collected.
For MRP2 functional analysis, CDCF-DA (non-fluorescent diacetate), was added on the apical or basal chamber which diffuses into the cells and is converted into fluorescent CDCF (MRP2 substrate) by intracellular esterases. Efflux of the fluorescent CDCF was monitored by transferring 75 μL of samples from both the donor and acceptor compartments to a clear-bottomed black 96-well plate. The CDCF fluorescence was then measured on the plate reader with 485 (exc)/528 (em) nm wavelength.
(§2) The apparent permeability (Papp) of the substrate was calculated as follows: • Papp = (dQ/dt)/(C0 × Vr A) • dQ/dt = slope of the linear portion of the permeated amount versus time curve (µmol/l/s) • A = effective surface area of the Transwell insert (0.11 cm^2) • C0 = initial concentration of the substrate (µmol/L) • Vr = the volume of the receiver chamber (mL).
(§3) The efflux ratio was calculated as follows: • Papp (B to A)/Papp (A to B)
(§4) Pgp, BCRP and MRP2 knockout (stable) Caco-2 cells (C2BBe1) were kindly provided by SOLVO Biotechnology (Szeged, Hungary). The individual transporters were knocked out using zinc finger nuclease technology. The knockout cell lines were cultured for 21 days except BCRP KO, which was grown for 25 days in a 96-well format. Assay conditions were in accordance with the Caco-2 assay from our lab. Transport analysis was performed according to the protocol described above. After transport experiments, metabolites were extracted from Caco-2 cells and analyzed according to the protocols described below.

BCRP [2] = biological target: T2, BCRP (Homo sapiens, UniProt Q9UNQ0); test: Intracellular LC-MS metabolomic signature and inhibition score for BCRP in Caco-2 cells; settings: Ko143 10 µM, Fumitremorgin C 5 µM, novobiocin 30 µM; Caco-2, 2 h
T2 sequence (Q9UNQ0 1-655): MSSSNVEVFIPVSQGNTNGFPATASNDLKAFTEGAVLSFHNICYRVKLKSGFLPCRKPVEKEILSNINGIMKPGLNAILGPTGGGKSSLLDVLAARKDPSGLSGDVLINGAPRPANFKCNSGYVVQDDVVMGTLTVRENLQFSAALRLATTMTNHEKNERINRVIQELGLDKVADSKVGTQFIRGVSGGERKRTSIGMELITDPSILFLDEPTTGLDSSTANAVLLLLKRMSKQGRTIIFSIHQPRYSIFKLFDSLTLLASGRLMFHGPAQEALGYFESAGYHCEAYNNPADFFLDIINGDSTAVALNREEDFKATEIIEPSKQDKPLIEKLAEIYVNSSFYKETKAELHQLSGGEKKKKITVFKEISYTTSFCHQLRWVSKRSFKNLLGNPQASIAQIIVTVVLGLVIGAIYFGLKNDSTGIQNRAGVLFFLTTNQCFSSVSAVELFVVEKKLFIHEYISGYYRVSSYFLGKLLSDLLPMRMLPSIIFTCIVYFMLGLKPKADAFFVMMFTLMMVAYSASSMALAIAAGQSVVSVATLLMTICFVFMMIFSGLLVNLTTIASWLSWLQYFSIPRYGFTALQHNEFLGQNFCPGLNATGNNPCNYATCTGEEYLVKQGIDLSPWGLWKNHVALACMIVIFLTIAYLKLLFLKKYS
Procedure: First, 2 × 10^4 cells/well were seeded on a 96 Transwell™ thin film polycarbonate membrane (0.4 µM pore size). Plates were incubated at 37 °C, 5% CO2 and 95% humidity. The cells were grown for 10 days and then treated on day 10. The monolayer integrity was checked prior to the experiment by measuring the transepithelial electrical resistance (TEER) using a TEER electrode. All TEER values ranged between 2000 and 4000 ohms∗cm^2, values greater than 1000 ohms∗cm^2 were used as an indicator of an intact monolayer.
MK571 (200 µM, n = 3) and Benzbromarone (66.7 µM, n= 1) were used to inhibit MRP2 activity. The compounds were diluted to the final concentration in HBSS (pH 7.4); 1% DMSO in HBSS was used as a control. Before treatment, media was removed, and the cells were washed twice with HBSS. […]
MultiQuant® software (v 3.0.3) was used for peak integration and the peak area for each metabolite was then exported. All data sets were normalized using the total sum of the quantified analyte area. The data were analyzed by SIMCA® 15/17 for multivariate analysis including Orthogonal Partial Least Squares–Discriminant Analysis (OPLS-DA). […]
The percentage difference for the normalized area of each (transporter) signature metabolite was calculated using the following equation:100 × (treated—control)/control

MRP2 [3] = biological target: T1, MRP2; test: Intracellular LC-MS metabolomic signature and inhibition score for MRP2 in Caco-2 cells; format: cell-based
Procedure: (§5) Samples were dried using a nitrogen evaporator.
(§6) The sample injection volume was 2 μL. Sample data were acquired using Analyst software. All the samples were randomized to avoid analytical bias.

MTHFR = test: Protein expression by Simple Western (WES/JESS) in Caco-2 cells: MTHFR; format: cell-based, human; settings: 24 h; zosuquidar 5 µM, Ko143 10 µM, MK571 200 µM; normalized to vinculin
Procedure: (§7) Cells were grown in a 6-well plate for 48 h and in a transwell for 10 days. Cells in the 6-well plates were incubated with inhibitors for 24 h and the cells in the transwell plate were incubated with inhibitors for 2 h to replicate metabolic effects. Protein extraction was performed once the cells were 90% confluent. Lysis buffer solution was prepared by adding 200 µL of phosphatase inhibitor cocktail 2 and 3 (Sigma-Aldrich, Dorset, UK), 100 µL of 100 mM PMSF protease inhibitor and 1 mL of CST lysis buffer (Cell Signaling Technology, Danvers, MA, USA) to 8.5 mls of deionized water. In the 6-well plate, cells were washed twice with ice-cold PBS, lysed with 500 μL of cold lysis buffer and transferred to Eppendorf tubes. The KO cells were lysed immediately after being taken out of the liquid nitrogen stock. […] The total protein concentration of the lysate was determined using Direct Detect™ infrared (IR)-based quantification system. […]
(§8) Different loading controls were used, depending on molecular weight and relative intensities of signal, and conditions were optimized accordingly. Protein samples were analyzed on a JESS/WES® (Simple Western system, Bio-Techne, Abingdon, UK) according to the manufacturer’s instructions (Protein Simple, Bio-Techne, Abingdon, UK) using a 12–230 kDa separation module. […]

thymidylate synthase = test: Protein expression by Simple Western (WES/JESS) in Caco-2 cells: thymidylate synthase; format: cell-based, human; settings: 24 h incubation; zosuquidar 5 µM, MK571 200 µM
Procedure: as §7, §8

[4] = tested on: Adenosylhomocysteinase (AHCY); test: Protein expression by Simple Western (WES/JESS) in Caco-2 cells: AHCY; format: cell-based, human; settings: 2 and 24 h incubation; MK571 200 µM
Procedure: as §7, §8

[5] = tested on: Serine Hydroxymethyltransferase 1 (SHMT1); test: Protein expression by Simple Western (WES/JESS) in Caco-2 cells: SHMT1; format: cell-based, human; settings: 2 and 24 h; MK571 200 µM
Procedure: as §7, §8

Pgp [6] = biological target: T3, Pgp (Homo sapiens, UniProt P08183); test: Caco-2 bidirectional transport of Pgp probe indinavir with/without inhibitor or in Pgp KO cells; format: cell-based; settings: for specificity of Pgp inhibition among Pgp, BCRP and MRP2 (functional experiments): zosuquidar 10 µM, valspodar 50 nM
T3 construct: express major uptake and efflux transporters on the apical and basal membranes, including the key efflux transporters Pgp, BCRP and MRP2; host or cells: Caco-2 (HTB-37); C2BBe1 clone WT/KO cells from SOLVO Biotechnology for the knockout comparisons
T3 sequence (P08183 whole entry): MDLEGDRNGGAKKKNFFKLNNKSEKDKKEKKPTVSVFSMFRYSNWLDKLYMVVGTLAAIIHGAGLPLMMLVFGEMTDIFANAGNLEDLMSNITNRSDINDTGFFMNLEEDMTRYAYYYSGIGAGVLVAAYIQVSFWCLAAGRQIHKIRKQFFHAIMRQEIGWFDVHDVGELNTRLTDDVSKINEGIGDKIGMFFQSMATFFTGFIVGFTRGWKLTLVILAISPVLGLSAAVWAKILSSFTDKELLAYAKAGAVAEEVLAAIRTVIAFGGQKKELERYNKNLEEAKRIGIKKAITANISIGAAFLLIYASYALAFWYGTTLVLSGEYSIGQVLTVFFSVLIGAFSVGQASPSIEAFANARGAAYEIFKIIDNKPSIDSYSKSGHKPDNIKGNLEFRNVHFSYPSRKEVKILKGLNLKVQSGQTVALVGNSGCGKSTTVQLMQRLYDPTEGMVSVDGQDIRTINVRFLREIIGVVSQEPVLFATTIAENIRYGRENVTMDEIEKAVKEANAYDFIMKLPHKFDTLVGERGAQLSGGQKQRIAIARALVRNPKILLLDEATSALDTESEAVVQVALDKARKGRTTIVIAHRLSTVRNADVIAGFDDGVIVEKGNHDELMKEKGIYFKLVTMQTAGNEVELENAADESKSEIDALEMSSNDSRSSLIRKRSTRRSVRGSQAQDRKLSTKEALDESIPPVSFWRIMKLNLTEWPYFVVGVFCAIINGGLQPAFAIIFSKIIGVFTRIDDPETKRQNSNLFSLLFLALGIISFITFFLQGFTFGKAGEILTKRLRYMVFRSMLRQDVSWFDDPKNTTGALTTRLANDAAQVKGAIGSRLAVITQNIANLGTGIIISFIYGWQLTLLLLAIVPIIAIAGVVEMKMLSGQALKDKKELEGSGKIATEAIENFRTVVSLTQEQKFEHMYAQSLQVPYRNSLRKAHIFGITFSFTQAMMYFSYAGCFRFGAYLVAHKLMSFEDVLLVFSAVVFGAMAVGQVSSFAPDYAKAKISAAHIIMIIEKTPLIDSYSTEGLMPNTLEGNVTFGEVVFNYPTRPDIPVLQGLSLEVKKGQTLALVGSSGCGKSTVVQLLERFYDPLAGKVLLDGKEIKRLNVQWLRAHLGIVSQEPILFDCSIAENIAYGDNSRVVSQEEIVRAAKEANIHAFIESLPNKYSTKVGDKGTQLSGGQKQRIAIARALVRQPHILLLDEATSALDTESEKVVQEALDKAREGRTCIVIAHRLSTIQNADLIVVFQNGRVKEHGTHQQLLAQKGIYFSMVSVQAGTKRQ
Procedure: as §1
(§9) For Pgp and BCRP functional analysis, a 75 µL aliquot of the samples was collected from both the donor and acceptor compartments and transferred to a new 96-well microplate (V bottom) containing 75 µL of methanol. 10 µL from the mixture was collected and transferred to a new plate containing 90 µL of 50:50 methanol/water. The concentration of probe substrates in the samples was then quantified using LC-MS.
The flow rate was 0.6 mL/min, and the total run time was 3.5 min. The sample injection volume was 2 μL. Sample data were acquired using Analyst software.
as §2, §3, §4

BCRP [7] = biological target: T2, BCRP; test: Caco-2 bidirectional transport of BCRP probe estrone-3-sulfate with/without inhibitor or in BCRP KO cells; format: cell-based; set-up: express major uptake and efflux transporters on the apical and basal membranes, including the key efflux transporters Pgp, BCRP and MRP2; host or cells: Caco-2 (HTB-37); C2BBe1 clone WT/KO cells from SOLVO Biotechnology for the knockout comparisons; settings: C2BBe1 Caco-2 BCRP KO vs WT
Procedure: as §1, §9
The flow rate was 0.6 mL/min, and the total run time was 3.5 min. […]
as §2, §3
Pgp, BCRP and MRP2 knockout (stable) Caco-2 cells (C2BBe1) were kindly provided by SOLVO Biotechnology (Szeged, Hungary). […] After transport experiments, metabolites were extracted from Caco-2 cells and analyzed according to the protocols described below.

Pgp [8] = biological target: T3, Pgp; test: Intracellular LC-MS metabolomic signature and inhibition score for Pgp in Caco-2 cells; format: cell-based; settings: some of the metabolites
Procedure: as §5, §6
For example, for Pgp, the percentage changes in Pgp signature metabolites with Pgp inhibition were summed to calculate a Pgp inhibition score for that inhibitor.

methionine synthase = test: Protein expression by Simple Western (WES/JESS) in Caco-2 cells: methionine synthase; format: cell-based, human; settings: 2 and 24 h incubation; zosuquidar 5 µM
Procedure: as §7, §8

[9] = set-up: method as in PMID 33312947; settings: trials testing efficacy against multidrug resistance; cited from earlier work

Molecule: COc1ccc2c3c([nH]c2c1)[C@H](C=C(C)C)N1C(=O)[C@@H]2CCCN2C(=O)[C@@H]1C3 [Fumitremorgin C]
intracellular levels of glutamate, hypoxanthine and xanthine (BCRP [2]): decreased | intracellular pantothenate levels (BCRP [2]): increased

Molecule: CN(C)C(=O)CCSC(SCCC(=O)O)c1cccc(/C=C/c2ccc3ccc(Cl)cc3n2)c1 (stereo not drawn) [MK571]
specificity of MRP2 inhibitors (functional assessment, Supplementary Table S1) (MRP2 [1]): lack of specificity | CDCF efflux in presence of inhibitor (MRP2 [1]; Caco-2 monolayer, CDCF 10 µM, 2 h): markedly reduced | change of MRP2 signature metabolites with increasing inhibitor concentration (MRP2 [3]): concentration-dependent change | MTHFR protein expression (MTHFR): significant decrease | thymidylate synthase expression (thymidylate synthase): reduced | Adenosylhomocysteinase (AHCY) protein levels [4]: significantly reduced | Serine Hydroxymethyltransferase 1 (SHMT1) expression [5]: significant reduction

Molecule: O[C@@H](COc1cccc2ncccc12)CN1CCN([C@@H]2c3ccccc3[C@@H]3[C@H](c4ccccc42)C3(F)F)CC1 [zosuquidar]
transcellular transport of indinavir in presence of inhibitor (Pgp [6]; Caco-2 monolayer, indinavir 10 µM, 2 h): inhibited | specificity of Pgp inhibition among Pgp, BCRP and MRP2 (functional experiments) (Pgp [6]): specifically inhibit Pgp | change of Pgp signature metabolites with increasing inhibitor concentration (Pgp [8]): concentration dependent change | MTHFR protein expression (MTHFR): increase | thymidylate synthase expression (thymidylate synthase): reduced | methionine synthase expression (methionine synthase): increase | toxicity observed in clinical trials [9]: neurotoxicity

More lines, now with the values ahead:

efflux ratio in MRP2 KO cells in comparison with wild type cells (MRP2 [1]; C2BBe1 Caco-2 MRP2 KO vs WT): reduced
Molecule: 5(6)-carboxy-2′,7′-dichlorofluorescein [CDCF]

specificity of MRP2 inhibitors (functional assessment, Supplementary Table S1) (MRP2 [1]): lack of specificity
Molecule: CCc1oc2ccccc2c1C(=O)c1cc(Br)c(O)c(Br)c1 [benzbromarone, Benzbromarone]

Pgp inhibition compared to other additional inhibitors (Pgp [6]; validation inhibitors of Figure 5C): weaker interaction with Pgp
Molecule: CN(C)CCCN1c2ccccc2Sc2ccc(Cl)cc21 [chlorpromazine]

efflux ratio in BCRP KO cells in comparison with wild type cells (BCRP [7]): reduced
Molecule: C[C@]12CC[C@@H]3c4ccc(OS(=O)(=O)O)cc4CC[C@H]3[C@@H]1CCC2=O [estrone-3-sulfate]

specificity of Pgp inhibition among Pgp, BCRP and MRP2 (functional experiments) (Pgp [6]): specifically inhibit Pgp
Molecule: C/C=C/C[C@@H](C)C(=O)[C@H]1C(=O)N[C@@H](C(C)C)C(=O)N(C)CC(=O)N(C)[C@@H](CC(C)C)C(=O)N[C@@H](C(C)C)C(=O)N(C)[C@@H](CC(C)C)C(=O)N[C@@H](C)C(=O)N[C@H](C)C(=O)N(C)[C@@H](CC(C)C)C(=O)N(C)[C@@H](CC(C)C)C(=O)N(C)[C@@H](C(C)C)C(=O)N1C [valspodar]

Source: article PMC9601193, “Intracellular Metabolomics Identifies Efflux Transporter Inhibitors in a Routine Caco-2 Cell Permeability Assay—Biological Implications” (Cells, 2022)
